Experimental data taken from patent US20190269752A1, “Methods for the Prevention or Treatment of Epilepsy” (Duke University, priority 2018, published 2019).

What was measured:
TrkB kinase = target: T1, TrkB kinase (Mus musculus, UniProt P15209); settings: WT mice (Chen et al. 2005, Liu et al. 2013); cited from earlier work
T1 construct: host or cells: wild type (C57/bl6) mice, endogenous TrkB

kindled TrkB^F616A mice [1] = test: Kindling model, 1NMPP1 treatment in the absence of a preceding evoked seizure; assay type: in vivo; settings: no preceding evoked seizure, seizure evoked six days after cessation
Method: (§1) Experiments were performed as previously described (He et al. 2010, He et al. 2014). A bipolar stimulating and recording electrode was inserted into the right amygdala (1.0 mm posterior, 2.9 mm lateral to bregma; 4.6 mm below dura). A skull screw was placed over the left frontal lobe as a ground electrode. After a postoperative recovery period of at least 5 days, animals were connected to a Grass Stimulator and monitored by both video and EEG. The current required to evoke an electrographic seizure (electrographic seizure threshold [EST]) was determined by applying a 1 s train of 1 msec biphasic-rectangular pulses at 60 Hz beginning at 20 μA. Additional stimulations were given in 20 μA increments at 1 min intervals until an electrographic seizure was detected. Animals then received two stimulations per day at the EST, with the behavioral seizure scores classified according to a modification of the Racine scale for mice (Borges et al., 2003; Racine, 1972): 0, normal activity; 1, arrest and rigid posture; 2, head nodding; 3, unilateral forelimb clonus; 4, rearing with bilateral forelimbs clonus; 5, rearing and falling; 6, tonic-clonic seizures with violent running and/or jumping. The criterion for “kindled” was the occurrence of three consecutive seizures of class 4 or greater, with limb clonus/tonus lasting at least 12 s.
(§2) Design of individual experiments is presented in panel A of FIGS. 1-5. All “post-kindling seizures” (see FIG. 1A) were evoked with a stimulation intensity determined by assessing the EST a second time, typically 6 days after evoking the “final kindled seizure” the EST was determined by administering stimulations in 20 μA increments every 1 min, beginning at 20 μA, until an electrographic seizure was evoked.
Prior to each administration, stock 100 mM 1NMPP1 was dissolved in a solubilization buffer containing 0.9% NaCL and 2.5% Tween-20 to a concentration of 1.67 mg/mL and dosed at 16.6 ug/g IP every 12 h for a total of five treatments. Vehicle injection served as a control. […]

kindled TrkB^F616A mice [2] = test: Kindling model, 1NMPP1 treatment initiated after an evoked seizure (chemical-genetic inhibition of TrkB kinase); assay type: in vivo
Description: All animal procedures were approved by the Institutional Animal Care and Use Committee (IACUC) at Duke University and conform to the National Institutes of Health and Duke University institutional guidelines for the care and use of experimental animals. Animals were maintained on a 12-hour light/dark cycle with food and water available ad libitum. Wild type (WT) adult (8-12 wk) C57/bl6 male mice were obtained from Charles River. TrkB^F616A mice were originally obtained from Dr. David Ginty (Chen et al. 2005) and backcrossed to the C57/bl6 line for at least seven generations. This knockin mouse harbors a point mutation on the TrkB allele, substituting an alanine for phenylalanine within the ATP binding pocket of the TrkB kinase domain. This mutation renders TrkB protein uniquely susceptible to kinase inhibition by small molecule derivatives of the general kinase inhibitor PP1, including 1-(1,1-dimethylethyl)-3-(1-naphthalenylmethyl)-1H-pyrazolo[3,4-d]pyrimidin-4-amine (1NMPP1). […] Both male and female adult (8-12 wk) homozygous mice were used.
(§3) Video and EEG recordings were analyzed by a blinded, trained observer who quantified behavioral seizure class and duration of both electrographic and behavioral seizure.
(§4) Experiments were performed as previously described (He et al. 2010, He et al. 2014). A bipolar stimulating and recording electrode was inserted into the right amygdala (1.0 mm posterior, 2.9 mm lateral to bregma; 4.6 mm below dura). A skull screw was placed over the left frontal lobe as a ground electrode. After a postoperative recovery period of at least 5 days, animals were connected to a Grass Stimulator and monitored by both video and EEG. The current required to evoke an electrographic seizure (electrographic seizure threshold [EST]) was determined by applying a 1 s train of 1 msec biphasic-rectangular pulses at 60 Hz beginning at 20 μA. Additional stimulations were given in 20 μA increments at 1 min intervals until an electrographic seizure was detected. […]
Design of individual experiments is presented in panel A of FIGS. 1-5. All “post-kindling seizures” (see FIG. 1A) were evoked with a stimulation intensity determined by assessing the EST a second time, typically 6 days after evoking the “final kindled seizure” the EST was determined by administering stimulations in 20 μA increments every 1 min, beginning at 20 μA, until an electrographic seizure was evoked. […]

kindled WT mice = test: Kindling model, treatment initiated after an evoked seizure in wild type mice; assay type: in vivo; settings: 1NMPP1 treatment of WT animals (n=9) following Post-Kindling Seizure #1, p<0.01
Description: All animal procedures were approved by the Institutional Animal Care and Use Committee (IACUC) at Duke University and conform to the National Institutes of Health and Duke University institutional guidelines for the care and use of experimental animals. Animals were maintained on a 12-hour light/dark cycle with food and water available ad libitum. Wild type (WT) adult (8-12 wk) C57/bl6 male mice were obtained from Charles River. TrkB^F616A mice were originally obtained from Dr. David Ginty (Chen et al. 2005) and backcrossed to the C57/bl6 line for at least seven generations. […]
as §3
as §4, with “A bipolar stimulating and recording electrode was inserted into the right amygdala (1.0 mm posterior, 2.9 mm lateral to bregma; 4.6 mm below dura). A skull screw was placed over the left frontal lobe as a ground electrode.” left out

[3] = test system: epileptic animals (KA-SE); test: Spontaneous recurrent seizures (video-EEG) after kainic acid-induced status epilepticus (KA-SE model of TLE); assay type: in vivo, mice; settings: six animals; for SRS during two weeks following cessation of treatment: after carbamazepine 800 mg/kg/day in food pellets for two weeks; for SRS during two weeks on treatment: carbamazepine 800 mg/kg/day in food pellets for two weeks
Description: Determining whether pY816 may be beneficial in epileptic animals required modification of our study of the kainic acid (KA)-status epilepticus (SE) model. To more closely mimic the clinical scenario in which patients seek medical attention for established TLE, we induced KA-SE and then conducted video-EEG recordings to detect spontaneous recurrent seizures during baseline periods of two to four weeks until they developed TLE prior to treating with pY816 peptide. In contrast to just three days of treatment with pY816 deployed in previous studies, we sought a more prolonged treatment with pY816 for the current experiments, namely two weeks. The intravenous route of administration used for three days in the prior studies was not feasible for two weeks, leading us to ask whether treatment via intraperitoneal route could inhibit activation of PLCγ1. We used the phosphorylation of residue Y783 of PLCγ1 detected on western blot of brain lysates as a surrogate measure of PLCγ1 activation.
Having verified that intraperitoneal administration of pY816 inhibited PLCγ1 activation, we then asked whether treatment with pY816 initiated after onset of epilepsy and continued for two weeks would reduce the severity of epilepsy or even induce a remission. Towards that end, we induced KA-SE but then followed the animals for several weeks until they developed TLE as assessed by detection of SRS in continuous video-EEG recordings. We quantified the number of SRS in each animal by blinded review of video-EEG recordings during three distinct two week epochs (FIG. 8): a) baseline; b) treatment with pY816 (n=9) or Scr control (n=6), 20 mg/kg IP twice daily for two weeks (on Tx); c) following termination of treatment (Post Tx). As noted in FIG. 8, following induction of status epilepticus induced by infusion of kainic acid into amygdala (Gu et al 2015) animals underwent continuous video-EEG recording to detect spontaneous recurrent seizures. Following baseline recording of two weeks, animals were treated with either pY816 or Scr control peptide (20 mg/kg) twice daily for two weeks (Day 15-28). Video-EEG recording continued for two weeks following termination of treatment (Post-treatment).
Results are shown in FIG. 9, where each symbol represents the number of seizures experienced by a given animal during Baseline, Treatment (Tx), or Post-treatment (Post Tx) periods. Horizontal bars designate median. Treatment (Tx) consisted of either pY816 or Scr control given 20 mg/kg twice daily for two weeks. Note that seizure detection was performed by analyses of video-EEG recordings by two blinded investigators.
Antiseizure drugs in current clinical use provide symptomatic relief of seizures in many but not all patients, but seizures typically recur upon cessation of the drug. To verify that similar findings occur in our animal model, we tested the effect of an antiseizure drug in current clinical use in our model (carbamazepine). We infused additional animals with KA and assessed the occurrence of SRS with continuous video-EEG monitoring for several weeks. […] Thus, like TLE in humans, continuous treatment with an antiseizure drug suppresses seizures, yet seizures recur upon discontinuation of treatment.

kindled mice = test: Kindling model, carbamazepine treatment after an evoked seizure; assay type: in vivo; settings: carbamazepine 20 mg/kg IP at four hour intervals for two days following Post-Kindling Seizure #1
Method: as §1, §2
Carbamazepine (Sigma) was dissolved in a solubilization buffer of 2% Tween-80 and 70% propylene glycol at a concentration of 2 mg/mL and administered at a dose of 20 mg/kg, a dose of carbamazepine sufficient to produce therapeutic blood levels (Grabenstatter et al. 2007). Treatments were given every 4 h for two days. […]

T1 sequence (P15209 32-821): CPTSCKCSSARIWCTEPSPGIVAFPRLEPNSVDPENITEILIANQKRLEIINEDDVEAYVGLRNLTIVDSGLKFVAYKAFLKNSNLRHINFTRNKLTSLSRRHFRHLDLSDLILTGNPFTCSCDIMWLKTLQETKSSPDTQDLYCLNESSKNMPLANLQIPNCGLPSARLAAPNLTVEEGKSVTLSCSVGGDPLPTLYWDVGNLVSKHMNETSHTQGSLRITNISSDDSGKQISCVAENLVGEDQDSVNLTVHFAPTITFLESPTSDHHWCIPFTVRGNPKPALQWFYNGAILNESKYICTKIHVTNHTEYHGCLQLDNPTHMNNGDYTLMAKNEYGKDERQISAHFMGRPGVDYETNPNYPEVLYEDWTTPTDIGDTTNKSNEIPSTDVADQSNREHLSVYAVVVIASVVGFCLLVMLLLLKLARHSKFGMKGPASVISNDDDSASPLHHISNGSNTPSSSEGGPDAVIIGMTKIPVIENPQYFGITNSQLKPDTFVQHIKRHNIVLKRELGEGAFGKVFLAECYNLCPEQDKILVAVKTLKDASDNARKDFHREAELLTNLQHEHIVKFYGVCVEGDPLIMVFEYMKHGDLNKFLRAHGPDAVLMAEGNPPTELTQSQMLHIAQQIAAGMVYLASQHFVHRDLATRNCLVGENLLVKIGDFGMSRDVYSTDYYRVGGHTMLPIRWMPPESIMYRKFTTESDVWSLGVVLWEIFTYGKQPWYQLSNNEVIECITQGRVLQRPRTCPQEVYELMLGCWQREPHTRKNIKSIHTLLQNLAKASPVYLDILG

CC(C)(C)n1nc(Cc2cccc3ccccc23)c2c(N)ncnc21 [1NMPP1, 1-(1,1-dimethylethyl)-3-(1-naphthalenylmethyl)-1H-pyrazolo[3,4-d]pyrimidin-4-amine]
Detectable effect in WT mice (TrkB kinase): does not have any detectable effect | Duration of electrographic seizure versus vehicle (kindled TrkB^F616A mice [1]; 1NMPP1 for two days (IP and drinking water) six days after final kindled seizure): No differences were detected | Duration of behavioral seizure versus vehicle (kindled TrkB^F616A mice [1]; 1NMPP1 for two days): No differences were detected | Seizure class versus vehicle (kindled TrkB^F616A mice [1]; 1NMPP1 for two days): No differences were detected | Duration of electrographic seizure, Post-Kindling Seizure #2 (kindled TrkB^F616A mice [2]; 1NMPP1 16.6 ug/g IP every 12 h, five treatments, plus 25 μM in drinking water, initiated immediately following Post-Kindling Seizure #1, n=16, vehicle 56.6±7.6 s, p<0.01, Final Kindled Sz 43.8±4.5 s): 29.2 ± 3.8 s | Duration of behavioral seizure, Post-Kindling Seizure #2 (kindled TrkB^F616A mice [2]; 1NMPP1 16.6 ug/g IP every 12 h, five treatments, plus drinking water, after Post-Kindling Seizure #1, vehicle 139.8±16.5 s, p<0.01): 63.5 ± 10 s | Behavioral seizure class of Post-Kindling Seizure #2 (kindled TrkB^F616A mice [2]; 1NMPP1 after Post-Kindling Seizure #1, versus vehicle): nonsignificant trend toward reduction | Number of animals with subconvulsive (less than Class 4) Post-Kindling Sz #2 (kindled TrkB^F616A mice [2]; 1NMPP1 following Post-Kindling Sz #1, 33 animals received 1NMPP1 or pY816, controls 1 of 28): 4 | Duration of electrographic seizure, Post-Kindling Sz #2 (kindled WT mice; Post-Kindling Sz #1 35.1±5.3 s): 67.4 ± 13.5 s | Duration of behavioral seizure, Post-Kindling Sz #2 (kindled WT mice; Post-Kindling Sz #1 72.4±10.2 s): 107.6 ± 10.5 s

NC(=O)N1c2ccccc2C=Cc2ccccc21 [carbamazepine, Carbamazepine]
SRS during two weeks following cessation of treatment [3]: seizures recurred in each animal | SRS during two weeks following cessation of treatment ([3]; listed as Carbamazepine): seizures recurred following cessation of treatment in each of the six animals | SRS during two weeks on treatment [3]: reduced in each of the six animals | SRS during two weeks on treatment ([3]; listed as Carbamazepine): effectively suppressed SRS in all but one animal | Duration of behavioral seizure, Post-Kindling Sz #2, versus vehicle (kindled mice): No differences were detected | Seizure class, Post-Kindling Sz #2, versus vehicle (kindled mice): No differences were detected | Duration of electrographic seizure, Post-Kindling Sz #2, versus vehicle (kindled mice; Sz #2 evoked fourteen days after last dose): No differences were detected
